# Experiments:
# Format in all cases: cell-based
# Conditions in all cases: fluorescent calcium assay
# TRPML3 = molecular target: T1, TRPML3 (Homo sapiens, UniProt Q8TDD5); assay: Fluorescent TRPML3 assay (performed as for TRPML1, substituting the TRPML3 subtype)
# T1 construct: expressed in transfected cells
# T1 sequence (Q8TDD5 1-553): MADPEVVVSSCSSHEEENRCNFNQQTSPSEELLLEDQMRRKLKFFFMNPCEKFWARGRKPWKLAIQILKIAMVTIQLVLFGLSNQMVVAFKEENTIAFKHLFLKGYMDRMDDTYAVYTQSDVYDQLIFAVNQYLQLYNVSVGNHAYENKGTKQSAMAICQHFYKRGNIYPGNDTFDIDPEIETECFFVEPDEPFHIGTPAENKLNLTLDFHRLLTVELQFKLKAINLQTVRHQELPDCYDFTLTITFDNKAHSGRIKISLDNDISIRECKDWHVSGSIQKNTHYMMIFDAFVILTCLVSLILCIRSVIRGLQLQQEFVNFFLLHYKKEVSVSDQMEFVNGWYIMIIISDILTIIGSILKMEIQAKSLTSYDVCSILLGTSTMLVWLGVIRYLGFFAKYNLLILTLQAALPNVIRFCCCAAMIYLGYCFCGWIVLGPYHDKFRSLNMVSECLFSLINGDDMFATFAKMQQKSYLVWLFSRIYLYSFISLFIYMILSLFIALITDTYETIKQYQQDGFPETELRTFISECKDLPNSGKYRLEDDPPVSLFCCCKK
# Method in brief: (§1)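 HEK-293 Trex, dox-induced (0.5 ug/mL), mutated for surface expression. Fluo4-AM 1 micromolar load ~60 min, dark; buffer modified Ringer's, 10 mM Ca. Cpds 20 micromolar–6 nanomolar final, half-log, n=3. Read ex 480/em 540; % activity vs controls; EC50 nonlinear fit.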
# TRPML2 = molecular target: T2, TRPML2 (Homo sapiens, UniProt Q8IZK6); assay: Fluorescent TRPML2 assay (performed as for TRPML1, substituting the TRPML2 subtype)
# T2 construct: expressed in transfected cells
# T2 sequence (Q8IZK6 1-566): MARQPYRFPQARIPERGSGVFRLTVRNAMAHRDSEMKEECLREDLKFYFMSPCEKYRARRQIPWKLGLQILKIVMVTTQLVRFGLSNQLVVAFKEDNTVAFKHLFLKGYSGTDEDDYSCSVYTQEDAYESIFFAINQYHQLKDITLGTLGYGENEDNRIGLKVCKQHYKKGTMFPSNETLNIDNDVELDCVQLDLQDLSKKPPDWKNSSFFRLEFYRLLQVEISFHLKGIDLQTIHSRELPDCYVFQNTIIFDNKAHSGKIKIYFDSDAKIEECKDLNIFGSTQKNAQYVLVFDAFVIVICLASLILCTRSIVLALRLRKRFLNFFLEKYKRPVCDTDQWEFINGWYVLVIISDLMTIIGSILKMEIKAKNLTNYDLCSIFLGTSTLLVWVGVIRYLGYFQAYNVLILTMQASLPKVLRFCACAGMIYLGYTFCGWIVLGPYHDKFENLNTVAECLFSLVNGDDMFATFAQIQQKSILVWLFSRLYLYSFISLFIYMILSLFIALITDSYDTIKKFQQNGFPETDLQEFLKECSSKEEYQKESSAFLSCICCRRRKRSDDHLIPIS
# Method in brief: as §1
# TRPML1 = TRPML1 (Homo sapiens, UniProt Q9GZU1); assay: Fluorescent TRPML1 assay (Fluo4-AM calcium fluorescence in doxycycline-induced HEK-293 Trex cells)
# TRPML1, sequence (Q9GZU1 whole entry L15A/L16A/L577A/L578A, form open): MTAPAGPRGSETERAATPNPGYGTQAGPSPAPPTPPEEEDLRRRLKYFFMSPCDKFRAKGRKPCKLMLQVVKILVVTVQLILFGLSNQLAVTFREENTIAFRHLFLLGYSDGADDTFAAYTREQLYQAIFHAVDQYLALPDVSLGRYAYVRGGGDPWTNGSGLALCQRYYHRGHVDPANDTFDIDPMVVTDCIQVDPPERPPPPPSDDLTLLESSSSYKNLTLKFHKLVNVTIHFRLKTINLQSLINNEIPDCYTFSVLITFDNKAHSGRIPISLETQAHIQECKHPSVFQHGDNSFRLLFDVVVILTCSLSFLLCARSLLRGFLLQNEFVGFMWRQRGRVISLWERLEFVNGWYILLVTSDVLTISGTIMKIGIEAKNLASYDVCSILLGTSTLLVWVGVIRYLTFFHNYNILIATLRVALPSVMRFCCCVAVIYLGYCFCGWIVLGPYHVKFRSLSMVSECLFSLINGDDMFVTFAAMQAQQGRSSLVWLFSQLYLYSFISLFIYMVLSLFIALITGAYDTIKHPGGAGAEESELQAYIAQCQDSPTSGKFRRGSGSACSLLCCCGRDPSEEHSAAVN
# Method in brief: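 hTRPML1 (mutated for cell-surface expression) in HEK-293 Trex, dox 0.5 ug/mL o/n; Fluo4-AM 1 uM ~60 min, then ~60 min de-esterification, dark; modified Ringer's + 10 mM Ca. Cmpds 20 uM–6 nM final, half-log, n=3. Ex480/Em540; % activity vs ctrls; EC50 by nonlinear regression.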
Compound,EC50 (TRPML3) [nM],EC50 (TRPML2) [nM],EC50 (TRPML1) [nM]
"Cc1cc(C#N)cc(-n2cc(-c3ccccc3F)c3c(N4CCN(C(=O)OC(C)(C)C)C[C@@H]4C)ncnc32)n1 [Compound 404, tert-butyl (S)-4-(7-(4-cyano-6-methylpyridin-2-yl)-5-(2-fluorophenyl)-7H-pyrrolo[2,3-d]pyrimidin-4-yl)-3-methylpiperazine-1-carboxylate]",< 100,< 100,< 100
"C[C@H]1CN(C(=O)OC(C)(C)C)CCN1c1ncnc2c1c(N1CCC(C)(C)C1)cn2-c1cc(C#N)ccn1 [Compound 405, tert-butyl (S)-4-(7-(4-cyanopyridin-2-yl)-5-(3,3-dimethylpyrrolidin-1-yl)-7H-pyrrolo[2,3-d]pyrimidin-4-yl)-3-methylpiperazine-1-carboxylate]",< 100,< 100,< 100
"C[C@H]1CN(C(=O)OC(C)(C)C)CCN1c1ncnc2c1c(N1CCCC1)cn2[C@@H]1C[C@@H]2CC[C@H]1C2 [Compound 406, tert-butyl-(S)-4-(7-((1S,2R,4R)-bicyclo[2.2.1]heptan-2-yl)-5-(pyrrolidin-1-yl)-7H-pyrrolo[2,3-d]pyrimidin-4-yl)-3-methylpiperazine-1-carboxylate]",500 to 2000,500 to 2000,100 to 500
"C[C@H]1CN(C(=O)OC(C)(C)C)CCN1c1ncnc2c1c(N1CCC1)cn2-c1cc(C#N)ccn1 [Compound 407, tert-butyl (S)-4-(5-(azetidin-1-yl)-7-(4-cyanopyridin-2-yl)-7H-pyrrolo[2,3-d]pyrimidin-4-yl)-3-methylpiperazine-1-carboxylate]",< 100,< 100,< 100
"C[C@H]1CN(C(=O)OC(C)(C)C)CCN1c1ncnc2c1c(C1(C)CC1)cn2-c1cc(C#N)ccn1 [Compound 411, tert-butyl (S)-4-(7-(4-cyanopyridin-2-yl)-5-(1-methylcyclopropyl)-7H-pyrrolo[2,3-d]pyrimidin-4-yl)-3-methylpiperazine-1-carboxylate]",< 100,< 100,< 100
CC(C)(C)OC(=O)N1CCN(c2ncnc3c2c(-c2ccccc2F)cn3-c2cc(C#N)ccn2)C2CC21 (stereo not drawn) [Compound 412],< 100,100 to 500,100 to 500
"C[C@H]1CN(C(=O)OC(C)(C)C)CCN1c1ncnc2c1c(C1CC1)cn2-c1cc(C#N)n(C)n1 [Compound 413, tert-butyl (S)-4-(7-(5-cyano-1-methyl-1H-pyrazol-3-yl)-5-cyclopropyl-7H-pyrrolo[2,3-d]pyrimidin-4-yl)-3-methylpiperazine-1-carboxylate]",< 100,100 to 500,100 to 500
"C[C@H]1CN(C(=O)OC(C)(C)C)CCN1c1ncnc2c1c(C1CC1)cn2C1CC(C#N)C1 (stereo partly drawn) [Compound 414, tert-butyl (S)-4-(7-(3-cyanocyclobutyl)-5-cyclopropyl-7H-pyrrolo[2,3-d]pyrimidin-4-yl)-3-methylpiperazine-1-carboxylate]",500 to 2000,> 2000,500 to 2000
"C[C@@H]1CN(c2ncnc3c2c(N2CCCC2)cn3-c2cc(C#N)ccn2)CCN1C(=O)OC(C)(C)C [Compound 416, tert-butyl (R)-4-(7-(4-cyanopyridin-2-yl)-5-(pyrrolidin-1-yl)-7H-pyrrolo[2,3-d]pyrimidin-4-yl)-2-methylpiperazine-1-carboxylate]",< 100,< 100,< 100
"CC(C)(C)OC(=O)N1CCN(c2ncnc3c2c(C2CC2)cn3-c2cc(C#N)ccn2)C(C)(C)C1 [Compound 421, tert-butyl 4-(7-(4-cyanopyridin-2-yl)-5-cyclopropyl-7H-pyrrolo[2,3-d]pyrimidin-4-yl)-3,3-dimethylpiperazine-1-carboxylate]",< 100,< 100,100 to 500

# Now from value to compound:
EC50 (TRPML3) [nM],EC50 (TRPML2) [nM],EC50 (TRPML1) [nM],Compound
< 100,500 to 2000,100 to 500,"Cc1cc(C#N)cc(-n2cc(C3CC3)c3c(N4CCN(C(=O)OC(C)(C)C)C[C@@H]4C)ncnc32)n1 [Compound 403, tert-butyl (S)-4-(7-(4-cyano-6-methylpyridin-2-yl)-5-cyclopropyl-7H-pyrrolo[2,3-d]pyrimidin-4-yl)-3-methylpiperazine-1-carboxylate]"
500 to 2000,> 2000,500 to 2000,"C[C@H]1CN(C(=O)OC(C)(C)C)CCN1c1ncnc2c1c(C1CC1)cn2C1CCCN(C#N)C1 (stereo partly drawn) [Compound 410, tert-butyl (3S)-4-(7-(1-cyanopiperidin-3-yl)-5-cyclopropyl-7H-pyrrolo[2,3-d]pyrimidin-4-yl)-3-methylpiperazine-1-carboxylate]"
< 100,100 to 500,< 100,C[C@H]1CN(C(=O)OC(C)(C)C)CCN1c1ncnc2c1c(N(C)C)cn2-c1cccc(Cl)c1 [Compound 415]
< 100,100 to 500,< 100,"C[C@@H]1CN(c2cn(-c3cc(C#N)ccn3)c3ncnc(N4CCN(C(=O)OC(C)(C)C)C[C@@H]4C)c23)CCO1 [Compound 417, tert-butyl (S)-4-(7-(4-cyanopyridin-2-yl)-5-((R)-2-methylmorpholino)-7H-pyrrolo[2,3-d]pyrimidin-4-yl)-3-methylpiperazine-1-carboxylate]"
< 100,100 to 500,< 100,"C[C@@H]1CN(c2nccc3c2c(C2CC2)cn3-c2cc(F)cc(F)c2)CCN1C(=O)OC(C)(C)C [Compound 418, tert-butyl (R)-4-(3-cyclopropyl-1-(3,5-difluorophenyl)-1H-pyrrolo[3,2-c]pyridin-4-yl)-2-methylpiperazine-1-carboxylate]"
< 100,100 to 500,< 100,"C[C@@H]1COCCN1c1cn(-c2cc(C#N)ccn2)c2ncnc(N3CCN(C(=O)OC(C)(C)C)C[C@@H]3C)c12 [Compound 419, tert-butyl (S)-4-(7-(4-cyanopyridin-2-yl)-5-((R)-3-methylmorpholino)-7H-pyrrolo[2,3-d]pyrimidin-4-yl)-3-methylpiperazine-1-carboxylate]"
< 100,< 100,< 100,"CC(C)(C)OC(=O)N1CCN(c2ncnc3c2c(-c2ccccc2F)cn3-c2cc(C#N)ccn2)C(C)(C)C1 [Compound 420, tert-butyl 4-(7-(4-cyanopyridin-2-yl)-5-(2-fluorophenyl)-7H-pyrrolo[2,3-d]pyrimidin-4-yl)-3,3-dimethylpiperazine-1-carboxylate]"
< 100,100 to 500,< 100,"CCN(CC)c1cn(-c2cc(C#N)ccn2)c2ncnc(N3CCN(C(=O)OC(C)(C)C(F)(F)F)C[C@@H]3C)c12 [Compound 422, 1,1,1-trifluoro-2-methylpropan-2-yl (S)-4-(7-(4-cyanopyridin-2-yl)-5-(diethylamino)-7H-pyrrolo[2,3-d]pyrimidin-4-yl)-3-methylpiperazine-1-carboxylate]"
< 100,< 100,< 100,"CCCN(CC)c1cn(-c2cc(C#N)ccn2)c2ncnc(N3CCN(C(=O)OC(C)(C)C)C[C@@H]3C)c12 [Compound 423, tert-butyl (S)-4-(7-(4-cyanopyridin-2-yl)-5-(ethyl(propyl)amino)-7H-pyrrolo[2,3-d]pyrimidin-4-yl)-3-methylpiperazine-1-carboxylate]"
< 100,100 to 500,< 100,"CCN(CC)c1cn(-c2cc(C#N)ccn2)c2ncnc(N3CCN(C(=O)OC(C)(C)C)C[C@@H]3C)c12 [Compound 424, tert-butyl (S)-4-(7-(4-cyanopyridin-2-yl)-5-(diethylamino)-7H-pyrrolo[2,3-d]pyrimidin-4-yl)-3-methylpiperazine-1-carboxylate]"

# Reference: US20250136606A1, “MODULATORS OF TRPML, THEIR COMPOSITIONS AND METHODS OF USE” (Caraway Therapeutics, Inc., priority 2021, published 2025)
